This note sets out measurements from patent publication US7238724B2, “Pharmaceutical compositions as inhibitors of dipeptidyl peptidase-IV (DPP-IV)” (Abbott Laboratories, priority 2004, dated 2007).

One assay addresses DPP8 (Homo sapiens, UniProt Q6V1X1). The experiment in a line: DPP8 inhibitory constant (Table 1 selectivity comparison). Format: biochemical.
Assay [1] deals with Normal mice (C57/BL6 strain). The experiment in a line: acute oral glucose tolerance test (OGTT). The note with it: OGTT 5 gm/kg. Format: in vivo. As for the experimental part: Compounds of the present invention were evaluated for their ability to treat diabetes using an acute oral glucose tolerance test (OGTT) as follows: Normal mice (C57/BL6 strain), 6-7 weeks of age, on a normal chow diet, were fasted for 3 hrs. A baseline tail snip blood sample was taken to measure glucose levels (Precision PCx glucose meter, Abbott Laboratories, Abbott Park, Ill.) at the beginning of the experiment. Immediately after this baseline sample, compounds of the present invention (or placebo) were dosed orally. One hour later, a tail snip blood glucose measurement was taken, immediately followed by an oral glucose dose (OGTT, 5 gm/kg). The glucose excursion was followed for 2 hours with samples taken at 10, 20, 30, 60 and 120 minutes post OGTT. These timed glucose data were used to construct a glucose excursion curve, from which an area under the glucose curve (AUGC) was determined. The data reported in Table 2 is the baseline-adjusted area under the glucose curve (δAUGC) for drug and control groups.

In the next assay the target is DPP9 (Homo sapiens, UniProt Q86TI2). The experiment in a line: DPP9 inhibitory constant (Table 1 selectivity comparison). The class given is biochemical.

Structures are written as SMILES. pKi: −log10 of the molar value.

Sequence of DPP8 (Q6V1X1 whole entry, species assumed): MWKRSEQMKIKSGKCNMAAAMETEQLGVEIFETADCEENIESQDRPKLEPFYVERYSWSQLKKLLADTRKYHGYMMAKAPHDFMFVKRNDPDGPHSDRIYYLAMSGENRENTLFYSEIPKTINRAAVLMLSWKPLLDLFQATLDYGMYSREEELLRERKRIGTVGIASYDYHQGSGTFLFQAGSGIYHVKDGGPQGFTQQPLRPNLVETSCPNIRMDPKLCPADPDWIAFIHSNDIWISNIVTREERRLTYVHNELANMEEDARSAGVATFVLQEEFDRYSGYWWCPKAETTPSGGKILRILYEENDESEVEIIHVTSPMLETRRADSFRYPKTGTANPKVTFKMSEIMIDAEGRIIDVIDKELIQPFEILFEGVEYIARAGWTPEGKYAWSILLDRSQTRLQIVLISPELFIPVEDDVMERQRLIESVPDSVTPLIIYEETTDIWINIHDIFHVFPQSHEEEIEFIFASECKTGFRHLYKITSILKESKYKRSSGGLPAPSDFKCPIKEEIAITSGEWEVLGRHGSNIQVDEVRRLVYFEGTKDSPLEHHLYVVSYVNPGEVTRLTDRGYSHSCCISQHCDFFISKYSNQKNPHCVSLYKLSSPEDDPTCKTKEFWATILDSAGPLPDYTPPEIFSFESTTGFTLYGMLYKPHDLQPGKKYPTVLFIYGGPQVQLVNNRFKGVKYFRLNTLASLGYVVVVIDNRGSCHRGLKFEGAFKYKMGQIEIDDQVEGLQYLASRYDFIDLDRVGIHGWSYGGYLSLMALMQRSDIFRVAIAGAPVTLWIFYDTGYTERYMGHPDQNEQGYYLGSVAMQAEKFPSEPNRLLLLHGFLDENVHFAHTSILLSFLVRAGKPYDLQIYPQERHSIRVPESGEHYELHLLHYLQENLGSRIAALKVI
Sequence of DPP9 (Q86TI2 whole entry, species assumed): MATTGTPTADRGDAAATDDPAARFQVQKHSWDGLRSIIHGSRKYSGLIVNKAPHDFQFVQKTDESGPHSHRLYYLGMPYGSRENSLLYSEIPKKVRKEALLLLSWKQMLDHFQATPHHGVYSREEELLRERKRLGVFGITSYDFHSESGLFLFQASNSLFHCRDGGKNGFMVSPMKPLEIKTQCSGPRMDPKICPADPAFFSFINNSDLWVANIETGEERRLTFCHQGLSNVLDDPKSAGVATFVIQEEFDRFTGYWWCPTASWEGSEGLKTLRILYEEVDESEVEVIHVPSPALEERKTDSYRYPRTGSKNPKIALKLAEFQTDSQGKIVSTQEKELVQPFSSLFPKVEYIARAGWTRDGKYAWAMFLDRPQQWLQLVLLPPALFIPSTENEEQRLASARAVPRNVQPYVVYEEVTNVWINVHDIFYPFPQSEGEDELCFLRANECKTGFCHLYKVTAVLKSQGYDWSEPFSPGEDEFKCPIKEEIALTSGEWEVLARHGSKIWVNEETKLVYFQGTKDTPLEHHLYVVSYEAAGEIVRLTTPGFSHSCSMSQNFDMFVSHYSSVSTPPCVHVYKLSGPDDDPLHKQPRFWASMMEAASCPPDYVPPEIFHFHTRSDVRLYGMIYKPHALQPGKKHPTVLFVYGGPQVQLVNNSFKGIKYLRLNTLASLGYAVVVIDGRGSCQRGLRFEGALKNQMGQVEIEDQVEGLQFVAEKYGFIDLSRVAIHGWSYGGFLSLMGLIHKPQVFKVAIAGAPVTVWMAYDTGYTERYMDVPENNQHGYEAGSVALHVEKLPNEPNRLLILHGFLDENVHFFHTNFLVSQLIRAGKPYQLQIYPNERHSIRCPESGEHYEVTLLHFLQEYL

As usually defined, the pKi is the negative decadic logarithm of the Ki, by convention in mol/L. A high value points to a low Ki. Compound `C#C[C@H]1CC[C@@H](C#N)N1C(=O)CN[C@H]1CC[C@H](Oc2ccc(C#N)cn2)CC1` (relative stereo) [Compound 3, (2S,5R)-5-ethynyl-1-{N-(4-trans(5-cyano-pyridin-2-yloxy)cyclohexyl)glycyl}pyrrolidine-2-carbonitrile] had a pKi at DPP8 of under 4.52. Besides, the “δ AUGC, change versus Control” value is −39% in assay [1] (1.0 mg/kg dosed orally) and −54% in assay [1] (3.0 mg/kg dosed orally).

Turning to `CC(C)(C)NCC(=O)N1[C@H](C#N)CC[C@@H]1C#N` [Compound 9, (2R,5S)-1-[(tert-butylamino)acetyl]pyrrolidine-2,5-dicarbonitrile], the pKi at DPP8 and at DPP9 was under 4.00 in each case.
